{"source": "patent US10907197B2", "about": "“Probes for imaging huntingtin protein” (CHDI Foundation, Inc., priority 2014, dated 2021)", "data": [{"target": "T1, Q46 protein aggregates (Homo sapiens, UniProt P42858, INS38QQQQQQQQQQQQQQQQQQQQQQQQQ)", "T1 construct": "33 μM GST-Q46 was incubated with 150 μg/mL thrombin in assay buffer (150 mM NaCl, 50 mM Tris pH 8.0) and 2 mM CaCl2 for 16 hr at 37° C; fused on or other part: GST at the N-terminus", "T1 sequence (P42858 with tags, fused parts or gaps with the stated changes)": "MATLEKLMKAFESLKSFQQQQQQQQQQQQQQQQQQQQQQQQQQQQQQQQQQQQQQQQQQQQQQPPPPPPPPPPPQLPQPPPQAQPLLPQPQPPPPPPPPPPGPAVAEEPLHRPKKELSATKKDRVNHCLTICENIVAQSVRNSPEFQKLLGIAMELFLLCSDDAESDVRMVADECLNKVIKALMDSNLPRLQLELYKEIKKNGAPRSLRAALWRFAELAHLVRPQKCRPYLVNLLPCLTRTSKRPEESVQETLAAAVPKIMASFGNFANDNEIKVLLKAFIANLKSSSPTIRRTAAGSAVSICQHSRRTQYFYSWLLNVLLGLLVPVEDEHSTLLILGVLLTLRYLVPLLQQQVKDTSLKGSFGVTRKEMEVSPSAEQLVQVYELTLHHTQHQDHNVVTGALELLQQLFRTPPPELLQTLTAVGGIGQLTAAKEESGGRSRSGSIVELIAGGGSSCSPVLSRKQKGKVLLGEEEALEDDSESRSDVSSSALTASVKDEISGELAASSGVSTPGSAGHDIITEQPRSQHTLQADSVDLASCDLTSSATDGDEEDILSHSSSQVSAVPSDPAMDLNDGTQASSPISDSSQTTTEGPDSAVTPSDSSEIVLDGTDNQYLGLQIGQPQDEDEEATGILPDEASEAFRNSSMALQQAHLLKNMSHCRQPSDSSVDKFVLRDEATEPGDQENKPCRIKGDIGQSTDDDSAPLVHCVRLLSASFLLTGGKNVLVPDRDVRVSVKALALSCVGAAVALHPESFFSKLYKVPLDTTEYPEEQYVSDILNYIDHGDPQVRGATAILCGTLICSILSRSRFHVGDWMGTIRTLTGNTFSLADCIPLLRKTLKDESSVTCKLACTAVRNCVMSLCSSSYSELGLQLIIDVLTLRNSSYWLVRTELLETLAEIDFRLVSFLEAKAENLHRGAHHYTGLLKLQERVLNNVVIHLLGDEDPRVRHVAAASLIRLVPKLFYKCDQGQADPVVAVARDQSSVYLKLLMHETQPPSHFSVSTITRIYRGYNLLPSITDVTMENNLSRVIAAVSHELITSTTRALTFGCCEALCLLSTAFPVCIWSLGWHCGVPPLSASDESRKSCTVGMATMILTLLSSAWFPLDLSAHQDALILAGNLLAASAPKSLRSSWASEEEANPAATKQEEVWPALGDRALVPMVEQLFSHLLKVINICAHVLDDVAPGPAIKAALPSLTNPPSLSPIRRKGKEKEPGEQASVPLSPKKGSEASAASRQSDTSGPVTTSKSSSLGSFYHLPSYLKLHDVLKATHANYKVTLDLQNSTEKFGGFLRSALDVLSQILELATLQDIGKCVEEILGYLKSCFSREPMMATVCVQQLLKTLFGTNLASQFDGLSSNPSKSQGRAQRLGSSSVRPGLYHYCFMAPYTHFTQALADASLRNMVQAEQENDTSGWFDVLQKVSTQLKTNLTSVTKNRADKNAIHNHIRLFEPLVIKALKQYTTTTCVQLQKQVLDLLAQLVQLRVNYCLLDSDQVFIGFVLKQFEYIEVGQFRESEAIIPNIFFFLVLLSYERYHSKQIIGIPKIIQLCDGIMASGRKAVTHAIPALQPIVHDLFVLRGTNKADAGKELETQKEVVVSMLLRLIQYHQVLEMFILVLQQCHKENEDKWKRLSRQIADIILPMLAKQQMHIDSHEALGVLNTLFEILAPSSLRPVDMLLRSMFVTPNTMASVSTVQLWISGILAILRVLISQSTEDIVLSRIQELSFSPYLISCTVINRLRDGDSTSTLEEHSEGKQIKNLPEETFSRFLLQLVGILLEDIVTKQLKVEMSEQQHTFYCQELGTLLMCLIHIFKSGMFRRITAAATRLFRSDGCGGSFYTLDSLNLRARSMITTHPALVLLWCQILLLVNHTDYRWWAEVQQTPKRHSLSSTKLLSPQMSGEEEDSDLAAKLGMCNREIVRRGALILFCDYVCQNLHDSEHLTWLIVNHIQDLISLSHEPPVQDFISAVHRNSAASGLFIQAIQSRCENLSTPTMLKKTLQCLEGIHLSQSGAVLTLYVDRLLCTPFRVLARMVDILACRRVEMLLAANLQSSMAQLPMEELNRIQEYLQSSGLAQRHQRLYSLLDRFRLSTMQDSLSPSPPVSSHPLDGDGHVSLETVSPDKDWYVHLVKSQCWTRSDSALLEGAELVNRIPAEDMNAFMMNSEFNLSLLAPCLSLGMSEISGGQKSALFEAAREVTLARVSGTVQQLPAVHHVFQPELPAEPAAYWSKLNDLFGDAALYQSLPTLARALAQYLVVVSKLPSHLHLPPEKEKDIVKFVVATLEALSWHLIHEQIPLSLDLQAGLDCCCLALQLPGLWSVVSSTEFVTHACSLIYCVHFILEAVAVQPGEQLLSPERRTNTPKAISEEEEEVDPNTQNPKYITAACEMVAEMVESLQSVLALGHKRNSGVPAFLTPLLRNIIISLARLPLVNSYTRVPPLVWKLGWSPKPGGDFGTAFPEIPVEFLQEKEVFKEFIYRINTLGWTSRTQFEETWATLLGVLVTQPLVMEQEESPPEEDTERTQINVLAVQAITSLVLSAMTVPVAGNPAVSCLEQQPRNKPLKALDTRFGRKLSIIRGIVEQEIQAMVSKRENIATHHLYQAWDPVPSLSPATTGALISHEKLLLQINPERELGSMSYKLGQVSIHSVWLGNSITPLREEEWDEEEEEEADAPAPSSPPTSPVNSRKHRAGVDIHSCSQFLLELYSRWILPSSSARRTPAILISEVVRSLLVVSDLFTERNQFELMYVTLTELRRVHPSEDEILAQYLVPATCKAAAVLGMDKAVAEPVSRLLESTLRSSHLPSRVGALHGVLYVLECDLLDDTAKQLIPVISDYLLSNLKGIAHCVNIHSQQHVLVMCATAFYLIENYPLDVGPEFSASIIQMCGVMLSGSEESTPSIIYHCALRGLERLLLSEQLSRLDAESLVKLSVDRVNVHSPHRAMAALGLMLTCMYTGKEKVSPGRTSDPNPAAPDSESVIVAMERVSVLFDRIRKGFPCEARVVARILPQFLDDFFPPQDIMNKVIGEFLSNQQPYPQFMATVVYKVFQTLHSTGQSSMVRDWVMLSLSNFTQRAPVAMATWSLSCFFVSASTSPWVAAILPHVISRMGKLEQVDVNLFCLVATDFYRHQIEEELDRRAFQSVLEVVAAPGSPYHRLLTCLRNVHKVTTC", "test": "Q46 Radioligand Binding Assay (RBA)", "conditions": "displacement of 10 nM [3H3]MK-3328 from 5 μM Q46 protein aggregates, 60 min at 37° C.", "experimental": "Q46 Radioligand Binding Assay\nFor radioligand binding assays (RBA) GST-Q46 protein was generated based on a previous publication (Scherzinger et al. Cell, Vol. 90, 549-558, Aug. 8, 1997). For experiments 33 μM GST-Q46 was incubated with 150 μg/mL thrombin in assay buffer (150 mM NaCl, 50 mM Tris pH 8.0) and 2 mM CaCl2 for 16 hr at 37° C. Aggregated Q46 was pelleted by centrifugation for 5 min at 13,000 rpm in a bench top centrifuge and re-dissolved in the same volume of assay buffer. Test compounds were prepared by titration in DMSO at 11 concentrations from 33 μM to 1 nM. For the RBA, Q46 protein aggregates and test compounds were pre-incubated in assay buffer for 20 min at room temperature, in 140 μL/well in a 96-well plate (pp, round bottom). Then, ligand was added in 10 μL/well and incubated for 60 min at 37° C. Final assay concentrations were 1 μM to 30 pM test compound, 5 μM Q46 protein (equivalent monomer concentration) and 10 nM ligand [^3H3]MK-3328 (Harrision et al., ACS Med. Chem. Lett., 2 (2011), pp 498-502). Samples were transferred onto GF/B filter plates and washed 2× with 200 μL PBS using a Filtermate Harvester. After drying filter plates for 1 hr at 37° C., the back of the plates was sealed with foil and 30 μL/well scintillation fluid (Packard MicroScint 40) was added, incubated for incubated for 15 min in the dark and counted in a TopCount reader. […] IC50 values were determined with a sigmoidal inhibition model with four variables (top, bottom, slope, IC50) in a global fit using the normalized replicate data.", "units": {"IC50": "nM"}, "values": [{"smiles": "N#Cc1cnccc1-c1nc2ccc(C(F)(F)F)cc2s1", "note": "[4-[6-(trifluoromethyl)-1,3-benzothiazol-2-yl]pyridine-3-carbonitrile]", "IC50": "< 100"}, {"smiles": "COc1ccc2oc(-c3cc(CN(C)C)ccc3C#N)cc2c1", "note": "[4-[(dimethylamino)methyl]-2-(5-methoxy-1-benzofuran-2-yl)benzonitrile]", "IC50": "< 100"}, {"smiles": "COc1ccc2oc(-c3ncnc(I)c3C#N)cc2c1", "note": "[4-iodo-6-(5-methoxy-1-benzofuran-2-yl)pyrimidine-5-carbonitrile]", "IC50": "> 500"}, {"smiles": "CN(CCO)c1ccc2oc(-c3ccncc3C#N)cc2c1", "note": "[4-{5-[(2-hydroxyethyl)(methyl)amino]-1-benzofuran-2-yl}pyridine-3-carbonitrile]", "IC50": "< 100"}, {"smiles": "COc1cc2cc(-c3ccncc3C#N)oc2cn1", "note": "[4-{5-methoxyfuro[2,3-c]pyridin-2-yl}pyridine-3-carbonitrile]", "IC50": "< 100"}, {"smiles": "COc1cnc2cc(-c3ccncc3C#N)oc2c1", "note": "[4-{6-methoxyfuro[3,2-b]pyridin-2-yl}pyridine-3-carbonitrile]", "IC50": "< 100"}, {"smiles": "COc1ccc2oc(-c3ccc(Br)cc3C#N)cc2c1", "note": "[5-bromo-2-(5-methoxy-1-benzofuran-2-yl)benzonitrile]", "IC50": "< 100"}, {"smiles": "O=c1[nH]cc(Br)cc1-c1cc2cc(Br)cnc2o1", "note": "[5-bromo-3-{5-bromofuro[2,3-b]pyridin-2-yl}-1,2-dihydropyridin-2-one]", "IC50": "< 100"}, {"smiles": "COc1ccc2oc(-c3ccncc3)c(C#N)c2c1", "note": "[5-methoxy-2-(pyridin-4-yl)-1-benzofuran-3-carbonitrile]", "IC50": "< 100"}, {"smiles": "COc1ccc2oc(-c3ccc(C#N)cn3)cc2c1", "note": "[6-(5-methoxy-1-benzofuran-2-yl)pyridine-3-carbonitrile]", "IC50": "< 100"}, {"smiles": "COc1ccc2nc(-c3ccccc3OC)sc2c1", "note": "[6-methoxy-2-(2-methoxyphenyl)-1,3-benzothiazole]", "IC50": "100 to 500"}, {"smiles": "COc1ccc2nc(-c3cccnc3)oc2c1", "note": "[6-methoxy-2-(pyridin-3-yl)-1,3-benzoxazole]", "IC50": "100 to 500"}, {"smiles": "COc1ccc2nc(-c3ccncc3-c3ccn[nH]3)sc2c1", "note": "[6-methoxy-2-[3-(1H-pyrazol-5-yl)pyridin-4-yl]-1,3-benzothiazole]", "IC50": "100 to 500"}, {"smiles": "COc1ccc2oc(-c3cccc4cn[nH]c34)cc2c1", "note": "[7-(5-methoxy-1-benzofuran-2-yl)-1H-indazole]", "IC50": "< 100"}, {"smiles": "COc1ccc2nc(-c3ccncc3NC(C)=O)sc2c1", "note": "[N-[4-(6-methoxy-1,3-benzothiazol-2-yl)pyridin-3-yl]acetamide]", "IC50": "< 100"}, {"smiles": "COc1ccc2oc(-c3cccc(NC(C)=O)n3)cc2c1", "note": "[N-[6-(5-methoxy-1-benzofuran-2-yl)pyridin-2-yl]acetamide]", "IC50": "< 100"}, {"smiles": "OCc1ccc2oc(-c3cccnc3)nc2c1", "note": "[[2-(pyridin-3-yl)-1,3-benzoxazol-5-yl]methanol]", "IC50": "> 500"}]}, {"test_system": "recombinant tau and amyloid β1-42 (Aβ1-42) aggregates", "test": "not given", "conditions": "higher affinity for the tau aggregates than Aβ1-42 aggregates; cited from earlier work", "values": [{"smiles": "CN(C)c1ccc(/C=C/c2nc3ccc(I)cc3[nH]2)cc1", "note": "[SBIM-3, 4-[(E)-2-(6-iodo-1H-benzimidazol-2-yl)ethenyl]-N,N-dimethylaniline]", "ratio of Kd values": 2.73}]}, {"test_system": "NFT in sections of AD brain tissue", "test": "not given", "conditions": "cited from earlier work", "values": [{"smiles": "CN(C)c1ccc(/C=C/c2nc3ccc(I)cc3[nH]2)cc1", "note": "[SBIM-3, 4-[(E)-2-(6-iodo-1H-benzimidazol-2-yl)ethenyl]-N,N-dimethylaniline]", "binding to NFT": "bound NFT in sections of AD brain tissue"}]}]}
